Measurements taken from the kinase profiling compilation of Christmann-Franck et al. (2016).

Key:
Assay in all cases: radiometric filter-binding kinase assay
BRSK2 (human) = BRSK2 (human) (UniProt Q8IWQ3); conditions: ATP 50 µM
CAMKK2 (human) = CAMKK2 (human) (UniProt Q96RR4); conditions: ATP 20 µM
CHEK1 (human) = CHEK1 (human) (UniProt O14757); conditions: ATP 20 µM
CSK (human) = CSK (human) (UniProt P41240); conditions: ATP 20 µM
DYRK2 (human) = DYRK2 (human) (UniProt Q92630); conditions: ATP 50 µM
EPHB3 (human) = EPHB3 (human) (UniProt P54753); conditions: ATP 20 µM
FLT1 (human) = FLT1 (human) (UniProt P17948)
INSR (human) = INSR (human) (UniProt P06213); conditions: ATP 20 µM
MAPK13 (human) = MAPK13 (human) (UniProt O15264); conditions: ATP 5 µM
MAPK13 (human), sequence (O15264 whole entry, looked up): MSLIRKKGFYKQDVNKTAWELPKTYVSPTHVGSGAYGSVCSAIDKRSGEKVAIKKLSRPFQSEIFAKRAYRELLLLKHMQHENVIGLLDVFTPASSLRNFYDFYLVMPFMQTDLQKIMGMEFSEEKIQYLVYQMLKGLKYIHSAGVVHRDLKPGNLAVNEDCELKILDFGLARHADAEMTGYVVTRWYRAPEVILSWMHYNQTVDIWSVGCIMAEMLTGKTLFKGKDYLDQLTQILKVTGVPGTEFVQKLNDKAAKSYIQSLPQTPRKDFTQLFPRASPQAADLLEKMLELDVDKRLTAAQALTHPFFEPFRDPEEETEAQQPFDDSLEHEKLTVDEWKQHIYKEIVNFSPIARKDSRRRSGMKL

MAPK14 (human) = MAPK14 (human) (UniProt Q16539); conditions: ATP 50 µM
MAPKAPK2 (human) = MAPKAPK2 (human) (UniProt P49137); conditions: ATP 20 µM
MAPKAPK2 (human), sequence (P49137 whole entry, looked up): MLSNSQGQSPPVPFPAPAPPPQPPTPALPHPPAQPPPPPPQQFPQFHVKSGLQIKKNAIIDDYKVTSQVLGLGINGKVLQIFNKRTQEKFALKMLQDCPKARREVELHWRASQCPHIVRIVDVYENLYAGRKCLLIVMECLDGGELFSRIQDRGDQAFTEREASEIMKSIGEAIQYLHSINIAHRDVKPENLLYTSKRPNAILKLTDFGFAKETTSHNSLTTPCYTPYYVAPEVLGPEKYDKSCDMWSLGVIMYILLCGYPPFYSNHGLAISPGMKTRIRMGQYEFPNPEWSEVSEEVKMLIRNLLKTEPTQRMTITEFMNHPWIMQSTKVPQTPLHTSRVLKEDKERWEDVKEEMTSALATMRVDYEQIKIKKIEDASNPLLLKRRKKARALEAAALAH

MARK3 (human) = MARK3 (human) (UniProt P27448); conditions: ATP 5 µM
MARK3 (human), sequence (P27448 whole entry, looked up): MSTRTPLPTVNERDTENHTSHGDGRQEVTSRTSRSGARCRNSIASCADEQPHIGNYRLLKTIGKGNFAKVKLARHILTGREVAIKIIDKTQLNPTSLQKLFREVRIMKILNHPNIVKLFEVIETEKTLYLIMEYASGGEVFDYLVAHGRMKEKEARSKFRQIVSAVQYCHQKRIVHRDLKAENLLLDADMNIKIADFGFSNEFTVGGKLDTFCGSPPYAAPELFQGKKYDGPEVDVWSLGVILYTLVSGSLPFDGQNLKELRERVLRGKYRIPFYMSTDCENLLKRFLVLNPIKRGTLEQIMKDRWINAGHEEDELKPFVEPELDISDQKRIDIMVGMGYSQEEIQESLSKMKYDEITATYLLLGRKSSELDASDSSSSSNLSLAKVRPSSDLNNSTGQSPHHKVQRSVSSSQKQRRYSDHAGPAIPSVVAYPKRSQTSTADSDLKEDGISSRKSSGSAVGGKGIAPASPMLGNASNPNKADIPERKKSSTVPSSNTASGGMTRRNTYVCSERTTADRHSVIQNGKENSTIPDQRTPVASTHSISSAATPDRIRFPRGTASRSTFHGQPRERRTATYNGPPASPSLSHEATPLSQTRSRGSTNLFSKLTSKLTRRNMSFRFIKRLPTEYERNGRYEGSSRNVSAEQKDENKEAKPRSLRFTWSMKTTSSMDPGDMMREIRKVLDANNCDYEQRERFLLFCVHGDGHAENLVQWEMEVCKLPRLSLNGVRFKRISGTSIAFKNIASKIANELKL

MELK (human) = MELK (human) (UniProt Q14680); conditions: ATP 50 µM
MST4 (human) = MST4 (human) (UniProt Q9P289); conditions: ATP 20 µM
MYLK (human) = MYLK (human) (UniProt Q15746); conditions: ATP 50 µM
NEK2 (human) = NEK2 (human) (UniProt P51955); conditions: ATP 50 µM
NEK2 (human), sequence (P51955 whole entry, looked up): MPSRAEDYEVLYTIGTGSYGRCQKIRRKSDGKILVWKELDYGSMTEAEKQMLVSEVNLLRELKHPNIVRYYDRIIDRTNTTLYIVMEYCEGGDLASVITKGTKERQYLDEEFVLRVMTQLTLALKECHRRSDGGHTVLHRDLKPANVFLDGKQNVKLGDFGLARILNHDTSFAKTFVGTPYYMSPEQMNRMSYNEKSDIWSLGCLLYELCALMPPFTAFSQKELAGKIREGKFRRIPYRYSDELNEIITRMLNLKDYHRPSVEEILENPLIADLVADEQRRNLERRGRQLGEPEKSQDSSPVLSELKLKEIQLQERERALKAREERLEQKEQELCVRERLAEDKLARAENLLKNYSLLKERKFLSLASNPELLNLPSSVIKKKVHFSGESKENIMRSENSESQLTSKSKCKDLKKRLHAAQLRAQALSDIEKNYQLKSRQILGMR

NEK6 (human) = NEK6 (human) (UniProt Q9HC98); conditions: ATP 50 µM
PAK7 (human) = PAK7 (human) (UniProt Q9P286); conditions: ATP 20 µM
PAK7 (human), sequence (Q9P286 whole entry, looked up): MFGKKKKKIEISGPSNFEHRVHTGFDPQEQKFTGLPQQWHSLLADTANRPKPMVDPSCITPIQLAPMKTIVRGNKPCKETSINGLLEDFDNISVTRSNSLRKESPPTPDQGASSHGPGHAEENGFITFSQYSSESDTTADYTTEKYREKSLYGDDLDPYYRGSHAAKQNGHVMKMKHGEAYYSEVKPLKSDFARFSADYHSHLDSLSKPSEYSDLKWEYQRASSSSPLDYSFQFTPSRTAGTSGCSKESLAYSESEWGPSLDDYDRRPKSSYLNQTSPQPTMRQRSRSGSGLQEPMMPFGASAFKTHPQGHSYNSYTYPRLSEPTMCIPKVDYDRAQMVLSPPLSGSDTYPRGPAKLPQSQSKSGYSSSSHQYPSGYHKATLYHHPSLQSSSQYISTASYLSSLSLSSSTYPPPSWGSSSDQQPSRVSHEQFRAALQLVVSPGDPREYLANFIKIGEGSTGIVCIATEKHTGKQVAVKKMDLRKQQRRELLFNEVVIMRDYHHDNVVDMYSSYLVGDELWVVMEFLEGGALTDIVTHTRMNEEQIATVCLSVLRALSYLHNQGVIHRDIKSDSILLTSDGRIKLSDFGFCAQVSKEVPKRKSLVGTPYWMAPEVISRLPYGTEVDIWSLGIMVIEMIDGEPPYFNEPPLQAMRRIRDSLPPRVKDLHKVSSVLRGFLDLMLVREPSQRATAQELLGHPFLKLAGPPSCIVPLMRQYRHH

PDPK1 (human) = PDPK1 (human) (UniProt O15530)
PDPK1 (human), sequence (O15530 whole entry, looked up): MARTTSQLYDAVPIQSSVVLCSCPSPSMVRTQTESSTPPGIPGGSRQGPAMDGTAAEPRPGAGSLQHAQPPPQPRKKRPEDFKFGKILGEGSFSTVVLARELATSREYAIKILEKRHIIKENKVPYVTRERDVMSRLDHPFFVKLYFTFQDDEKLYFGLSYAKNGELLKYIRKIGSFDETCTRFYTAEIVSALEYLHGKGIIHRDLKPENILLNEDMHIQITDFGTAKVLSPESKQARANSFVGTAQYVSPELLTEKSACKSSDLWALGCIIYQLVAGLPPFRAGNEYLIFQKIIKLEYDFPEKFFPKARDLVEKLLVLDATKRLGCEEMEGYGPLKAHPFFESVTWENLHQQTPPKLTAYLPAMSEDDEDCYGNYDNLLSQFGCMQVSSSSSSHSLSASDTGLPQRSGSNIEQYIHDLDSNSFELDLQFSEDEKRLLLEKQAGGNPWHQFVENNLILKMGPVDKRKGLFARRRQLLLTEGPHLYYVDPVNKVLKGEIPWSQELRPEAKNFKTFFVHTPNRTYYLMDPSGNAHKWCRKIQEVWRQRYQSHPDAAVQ

PI4KA (human) = PI4KA (human) (UniProt P42356)
PI4KB (human) = PI4KB (human) (UniProt Q9UBF8)
PKN2 (human) = PKN2 (human) (UniProt Q16513); conditions: ATP 5 µM
[1] = molecular target: PRKAA1 PRKAB2 PRKAG1 (human) (UniProt O43741+Q13131+P54619); conditions: ATP 50 µM
RPS6KA1 KD1 KD2 (human) = RPS6KA1 KD1 KD2 (human) (UniProt Q15418); conditions: ATP 100 µM
RPS6KA1 KD1 KD2 (human), sequence (Q15418 whole entry, looked up): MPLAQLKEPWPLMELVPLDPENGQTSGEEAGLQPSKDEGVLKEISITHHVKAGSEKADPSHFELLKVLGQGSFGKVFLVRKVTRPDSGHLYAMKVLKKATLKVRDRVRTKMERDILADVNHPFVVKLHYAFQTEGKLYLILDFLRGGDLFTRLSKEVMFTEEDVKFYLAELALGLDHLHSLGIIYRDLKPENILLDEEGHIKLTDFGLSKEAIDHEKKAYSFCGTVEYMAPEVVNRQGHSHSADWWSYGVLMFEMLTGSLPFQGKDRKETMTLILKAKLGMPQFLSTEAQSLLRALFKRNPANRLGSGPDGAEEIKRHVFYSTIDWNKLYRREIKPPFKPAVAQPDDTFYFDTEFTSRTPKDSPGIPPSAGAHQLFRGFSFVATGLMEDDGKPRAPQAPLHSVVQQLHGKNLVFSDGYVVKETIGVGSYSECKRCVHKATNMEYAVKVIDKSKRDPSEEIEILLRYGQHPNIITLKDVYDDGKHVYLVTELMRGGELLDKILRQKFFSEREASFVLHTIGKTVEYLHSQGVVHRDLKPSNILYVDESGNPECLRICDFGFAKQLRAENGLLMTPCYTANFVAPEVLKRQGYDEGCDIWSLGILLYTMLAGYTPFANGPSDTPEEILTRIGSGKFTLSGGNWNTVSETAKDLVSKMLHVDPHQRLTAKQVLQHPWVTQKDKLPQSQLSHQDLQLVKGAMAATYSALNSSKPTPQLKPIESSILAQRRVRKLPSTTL

RPS6KA3 KD1 KD2 (human) = RPS6KA3 KD1 KD2 (human) (UniProt P51812); conditions: ATP 100 µM
[2] = system: SGK1 (human), O00141 [S422D]; conditions: ATP 20 µM
SRC (human) = SRC (human) (UniProt P12931); conditions: ATP 50 µM
SRC (human), sequence (P12931 whole entry, looked up): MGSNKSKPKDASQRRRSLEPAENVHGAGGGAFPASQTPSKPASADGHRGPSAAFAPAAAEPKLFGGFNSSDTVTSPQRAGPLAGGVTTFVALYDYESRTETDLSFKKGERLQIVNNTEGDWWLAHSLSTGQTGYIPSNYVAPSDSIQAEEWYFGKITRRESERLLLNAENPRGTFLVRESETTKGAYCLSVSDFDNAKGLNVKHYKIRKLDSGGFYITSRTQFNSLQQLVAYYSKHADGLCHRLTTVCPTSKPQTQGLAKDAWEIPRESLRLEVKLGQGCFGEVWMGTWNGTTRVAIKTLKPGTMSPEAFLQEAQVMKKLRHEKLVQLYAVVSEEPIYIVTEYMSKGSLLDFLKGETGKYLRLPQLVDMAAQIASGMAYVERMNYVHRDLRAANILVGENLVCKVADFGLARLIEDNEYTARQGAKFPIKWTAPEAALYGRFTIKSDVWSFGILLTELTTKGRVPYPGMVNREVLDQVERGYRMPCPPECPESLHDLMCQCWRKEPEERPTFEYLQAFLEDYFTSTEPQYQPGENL

CSK (human), sequence (P41240 whole entry, looked up): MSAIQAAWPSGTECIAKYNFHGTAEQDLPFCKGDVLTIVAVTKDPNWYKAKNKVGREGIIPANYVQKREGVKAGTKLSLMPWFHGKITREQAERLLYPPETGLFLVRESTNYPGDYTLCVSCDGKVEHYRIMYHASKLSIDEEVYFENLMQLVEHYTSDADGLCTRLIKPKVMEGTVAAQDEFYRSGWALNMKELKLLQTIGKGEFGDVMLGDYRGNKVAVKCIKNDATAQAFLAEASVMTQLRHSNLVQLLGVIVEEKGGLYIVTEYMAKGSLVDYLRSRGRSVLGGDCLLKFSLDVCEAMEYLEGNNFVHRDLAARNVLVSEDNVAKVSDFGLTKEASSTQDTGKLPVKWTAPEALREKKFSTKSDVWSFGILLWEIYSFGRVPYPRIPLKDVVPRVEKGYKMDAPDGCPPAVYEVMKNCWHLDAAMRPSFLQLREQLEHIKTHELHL

SMILES: CCc1cncnc1N1CCN(Cc2nc3cc(C(F)(F)F)ccc3[nH]2)CC1
- residual activity (BRSK2 (human); compound 0.1 µM): 88%
- residual activity (BRSK2 (human); compound 1.0 µM): 84%
- residual activity (BRSK2 (human); compound 10.0 µM): 83%
- residual activity (CAMKK2 (human); compound 0.1 µM): 99%
- residual activity (CAMKK2 (human); compound 1.0 µM): 98%
- residual activity (CAMKK2 (human); compound 10.0 µM): 80%
- residual activity (CHEK1 (human); compound 0.1 µM): 90%
- residual activity (CHEK1 (human); compound 1.0 µM): 83%
- residual activity (CHEK1 (human); compound 10.0 µM): 83%
- residual activity (CSK (human); compound 0.1 µM): 94%
- residual activity (CSK (human); compound 1.0 µM): 93%
- residual activity (CSK (human); compound 10.0 µM): 98%
- residual activity (DYRK2 (human); compound 0.1 µM): 97%
- residual activity (DYRK2 (human); compound 1.0 µM): 104%
- residual activity (DYRK2 (human); compound 10.0 µM): 101%
- residual activity (EPHB3 (human); compound 0.1 µM): 132%
- residual activity (EPHB3 (human); compound 1.0 µM): 139%
- residual activity (EPHB3 (human); compound 10.0 µM): 101%
- residual activity (FLT1 (human); compound 0.1 µM, ATP 20 µM): 97%
- residual activity (FLT1 (human); compound 0.1 µM, ATP 100 µM): 100%
- residual activity (FLT1 (human); compound 1.0 µM, ATP 20 µM): 83%
- residual activity (FLT1 (human); compound 1.0 µM, ATP 100 µM): 65%
- residual activity (FLT1 (human); compound 10.0 µM, ATP 20 µM): 37%
- residual activity (FLT1 (human); compound 10.0 µM, ATP 100 µM): 55%
- residual activity (INSR (human); compound 0.1 µM): 108%
- residual activity (INSR (human); compound 1.0 µM): 95%
- residual activity (INSR (human); compound 10.0 µM): 96%
- residual activity (MAPK13 (human); compound 0.1 µM): 89%
- residual activity (MAPK13 (human); compound 1.0 µM): 82%
- residual activity (MAPK13 (human); compound 10.0 µM): 91%
- residual activity (MAPK14 (human); compound 0.1 µM): 86%
- residual activity (MAPK14 (human); compound 1.0 µM): 79%
- residual activity (MAPK14 (human); compound 10.0 µM): 86%
- residual activity (MAPKAPK2 (human); compound 0.1 µM): 88%
- residual activity (MAPKAPK2 (human); compound 1.0 µM): 105%
- residual activity (MAPKAPK2 (human); compound 10.0 µM): 78%
- residual activity (MARK3 (human); compound 0.1 µM): 94%
- residual activity (MARK3 (human); compound 1.0 µM): 83%
- residual activity (MARK3 (human); compound 10.0 µM): 82%
- residual activity (MELK (human); compound 0.1 µM): 94%
- residual activity (MELK (human); compound 1.0 µM): 101%
- residual activity (MELK (human); compound 10.0 µM): 87%
- residual activity (MST4 (human); compound 0.1 µM): 87%
- residual activity (MST4 (human); compound 1.0 µM): 77%
- residual activity (MST4 (human); compound 10.0 µM): 46%
- residual activity (MYLK (human); compound 0.1 µM): 95%
- residual activity (MYLK (human); compound 1.0 µM): 79%
- residual activity (MYLK (human); compound 10.0 µM): 87%
- residual activity (NEK2 (human); compound 0.1 µM): 95%
- residual activity (NEK2 (human); compound 1.0 µM): 94%
- residual activity (NEK2 (human); compound 10.0 µM): 91%
- residual activity (NEK6 (human); compound 0.1 µM): 88%
- residual activity (NEK6 (human); compound 1.0 µM): 75%
- residual activity (NEK6 (human); compound 10.0 µM): 80%
- residual activity (PAK7 (human); compound 0.1 µM): 100%
- residual activity (PAK7 (human); compound 1.0 µM): 88%
- residual activity (PAK7 (human); compound 10.0 µM): 87%
- residual activity (PDPK1 (human); compound 0.1 µM, ATP 20 µM): 90%
- residual activity (PDPK1 (human); compound 0.1 µM, ATP 50 µM): 94%
- residual activity (PDPK1 (human); compound 1.0 µM, ATP 20 µM): 86%
- residual activity (PDPK1 (human); compound 1.0 µM, ATP 50 µM): 83%
- residual activity (PDPK1 (human); compound 10.0 µM, ATP 20 µM): 95%
- residual activity (PDPK1 (human); compound 10.0 µM, ATP 50 µM): 67%
- residual activity (PI4KA (human); compound 1.0 µM): 106%
- residual activity (PI4KA (human); compound 10.0 µM): 102%
- residual activity (PI4KB (human); compound 1.0 µM): 103%
- residual activity (PI4KB (human); compound 10.0 µM): 99%
- residual activity (PKN2 (human); compound 0.1 µM): 95%
- residual activity (PKN2 (human); compound 1.0 µM): 86%
- residual activity (PKN2 (human); compound 10.0 µM): 84%
- residual activity ([1]; compound 0.1 µM): 100%
- residual activity ([1]; compound 1.0 µM): 88%
- residual activity ([1]; compound 10.0 µM): 46%
- IC50 (RPS6KA1 KD1 KD2 (human)): 4.7 µM
- residual activity (RPS6KA1 KD1 KD2 (human); compound 0.1 µM): 85%
- residual activity (RPS6KA1 KD1 KD2 (human); compound 1.0 µM): 83%
- residual activity (RPS6KA1 KD1 KD2 (human); compound 10.0 µM): 33%
- IC50 (RPS6KA3 KD1 KD2 (human)): 9.2 µM
- residual activity (RPS6KA3 KD1 KD2 (human); compound 0.1 µM): 100%
- residual activity (RPS6KA3 KD1 KD2 (human); compound 1.0 µM): 86%
- residual activity (RPS6KA3 KD1 KD2 (human); compound 10.0 µM): 45%
- residual activity ([2]; compound 0.1 µM): 106%
- residual activity ([2]; compound 1.0 µM): 74%
- residual activity ([2]; compound 10.0 µM): 65%
- residual activity (SRC (human); compound 0.1 µM): 103%
- residual activity (SRC (human); compound 1.0 µM): 99%
- residual activity (SRC (human); compound 10.0 µM): 92%
